Source: US9585386B2, “Microbicidal composition” (Dow Global Technologies LLC, priority 2013, dated 2017)
Values joined by “and” are separate entries in the source; they are usually repeats but may differ in a detail not shown here. Equal values may be shown once. Read-outs that look alike come from different tables or passages of the source.

Experiments:
Type in all cases: cell-based
any organism tested = assay: Synergy of other biocides paired with surfactants; conditions: for ratio of surfactant to biocide where synergy was observed: not commercially relevant (less biocide relative to surfactant)
Procedure: (§1) Surfactants and biocides were evaluated for synergy by determining the synergy index (S.I.) of the combination. Synergy index was calculated based on minimum inhibitory concentrations (MIC) of two antimicrobial compounds (A and B) alone and in combinations. The tests organisms were Gram negative bacteria (Pseudomonas aeruginosa ATCC #15442), Gram positive bacteria (Staphylococcus aureus ATCC #6538), yeast (Candida albicans ATCC #10203) and mold (Aspergillus niger ATCC#16404). Contact time for the bacteria was 24 and 48 hours, yeast was 48 and 72 hrs, and 3 and 7 days for mold. The test was carried out in 96 well microtiter plates. • Surf. A R^1O(CH2CH(CH3)O)5(CH2CH2O)9H, where R^1 is 2-ethylhexyl • Surf. D R^2O(CH2CH(CH3)O)3(CH2CH2O)5H • Surf. E R^2O(CH2CH(CH3)O)3(CH2CH2O)7H In Surf. D and Surf. E, R^2 is a mixture of C8-C14 linear alkyl groups (70% C8-C10 linear alkyl and 30% C12-C14 linear alkyl) Inoculums Used
(§2) SI is calculated as follows: Ca/CA+Cb/CB=Synergy Index (“SI”)
(§3) Wherein: • CA=concentration of compound A in ppm, acting alone, which produced an end point (MIC of Compound A). • Ca=concentration of compound A in ppm, in the mixture, which produced an end point. • CB=concentration of compound B in ppm, acting alone, which produced an end point (MIC of Compound B). • Cb=concentration of compound B in ppm, in the mixture, which produced an end point. When the sum of Ca/CA and Cb/CB is greater than one, antagonism is indicated.
A • Sodium Benzoate, TRIS NITRO Surf. E • DMDMH Surf. […] At these ratios, the biocide levels in a formulated product would be too low to be practical: Surf. A • DIDAC, IPBC Surf. E • CMIT/MIT, IPBC, OIT, TTPC, WSCP Surf.

[1] = tested on: Pseudomonas aeruginosa ATCC #15442; assay: MIC / synergy index test in 96 well microtiter plates, Gram negative bacteria; conditions: for Cb (concentration of compound B in the mixture which produced an end point): 1/10 TSB, 24 hrs; for MIC: Pseudomonas aeruginosa, ATCC15442, 24 h
Procedure: as §1
(§4) The pH of the Triptic soy broth was 7.3 and the Potato dextrose broth was 5.1.
as §2, §3

[2] = tested on: Candida albicans ATCC #10203; assay: MIC / synergy index test in 96 well microtiter plates, yeast; conditions: for CB (MIC of compound B alone): MIT alone; for CB (MIC of compound B alone) / Cb (concentration of compound B in the mixture which produced an end point): PDB, 48 hrs
Procedure: as §1, §4, §2, §3

[3] = tested on: Aspergillus niger ATCC#16404; assay: MIC / synergy index test in 96 well microtiter plates, mold; conditions: PDB, 3rd day; for MIC: Aspergillus niger, ATCC16404, read-out: CB (MIC of compound B alone), MIT alone, inoculum 1.156E+06 CFU/ml; for Cb (concentration of compound B in the mixture which produced an end point): 1.156E+06 CFU/ml
Procedure: as §1, §4, §2, §3

[4] = tested on: Staphylococcus aureus ATCC #6538; assay: MIC / synergy index test in 96 well microtiter plates, Gram positive bacteria
Procedure: as §1, §4, §2, §3

Oc1ccccc1-c1ccccc1 [OPP]
Synergy against any organism tested (any organism tested; biocide paired with Surf. D): no synergy

CCCCCCCCn1sccc1=O [OIT]
ratio of surfactant to biocide where synergy was observed (any organism tested; biocide paired with Surf. D): 1:0.2 or greater
ratio of surfactant to biocide where synergy was observed (any organism tested; biocide paired with Surf. E): 1:0.2 or greater

O=[N+]([O-])C(CO)(CO)CO [TRIS NITRO]
Synergy against any organism tested (any organism tested; biocide paired with Surf. A): no synergy

O=C([O-])c1ccccc1.[Na+] [Sodium Benzoate]
Synergy against any organism tested (any organism tested; biocide paired with Surf. A): no synergy

Cn1sccc1=O [MIT, 2-methyl-4-isothiazolin-3-one]
Cb (concentration of compound B in the mixture which produced an end point) ([1]; MIT in mixture with Surf. A, 8.134E+07 CFU/ml): 30 ppm
Cb (concentration of compound B in the mixture which produced an end point) ([1]; MIT in mixture with Surf. D, 1.16E+08): 20 ppm
MIC ([1]; read-out: CB (MIC of compound B alone), MIT alone, Surf. A series, 1/10 TSB, inoculum 8.134E+07 CFU/ml): 40 µg/mL
MIC ([1]; read-out: CB (MIC of compound B alone), MIT alone, Surf. D series, 1/10 TSB, inoculum 1.16E+08): 30 µg/mL
MIC ([2]; Candida albicans, ATCC10203, 48 h, read-out: CB (MIC of compound B alone)): 200 µg/mL
CB (MIC of compound B alone) ([2]; Surf. D series, inoculum 5.726E+05 CFU/ml): 200 ppm
CB (MIC of compound B alone) ([2]; Surf. E series, inoculum 1.808E+06): 200 ppm
Cb (concentration of compound B in the mixture which produced an end point) ([2]; MIT in mixture with Surf. A, 1.156E+06 CFU/ml): 100 ppm
Cb (concentration of compound B in the mixture which produced an end point) ([2]; MIT in mixture with Surf. D, 5.726E+05 CFU/ml): 50 ppm and 60 ppm and 80 ppm and 100 ppm
MIC ([3]; Surf. A series): 400 µg/mL
MIC ([3]; Surf. E series): 300 µg/mL
Cb (concentration of compound B in the mixture which produced an end point) ([3]; MIT in mixture with Surf. A): 300 ppm
Cb (concentration of compound B in the mixture which produced an end point) ([3]; MIT in mixture with Surf. E): 200 ppm
CB (MIC of compound B alone) ([4]; MIT alone, Surf. E series, 1/10 TSB, inoculum 1.808E+06 CFU/ml, 24 hrs): 60 ppm
Cb (concentration of compound B in the mixture which produced an end point) ([4]; MIT in mixture with Surf. E, 1/10 TSB, 1.808E+06 CFU/ml, 24 hrs): 50 ppm and 40 ppm and 30 ppm
MIC ([4]; Staphylococcus aureus, ATCC6538, 24 h, read-out: CB (MIC of compound B alone)): 60 µg/mL

Cn1sc2ccccc2c1=O [MBIT]
ratio of surfactant to biocide where synergy was observed (any organism tested; biocide paired with Surf. D): synergistic only at 1:0.05 or worse

CCCCCCCCCC[N+](C)(C)CCCCCCCCCC.[Cl-] [DIDAC]
ratio of surfactant to biocide where synergy was observed (any organism tested; biocide paired with Surf. A): 1:0.2 or greater
ratio of surfactant to biocide where synergy was observed (any organism tested; biocide paired with Surf. D): 1:0.2 or greater

CCCCNC(=O)OCC#CI [IPBC]
ratio of surfactant to biocide where synergy was observed (any organism tested; biocide paired with Surf. A): 1:0.2 or greater
ratio of surfactant to biocide where synergy was observed (any organism tested; biocide paired with Surf. D): synergistic only at 1:0.05 or worse
ratio of surfactant to biocide where synergy was observed (any organism tested; biocide paired with Surf. E): 1:0.2 or greater

CC1(C)C(=O)N(CO)C(=O)N1CO [DMDMH]
Synergy against any organism tested (any organism tested; biocide paired with Surf. D): no synergy
Synergy against any organism tested (any organism tested; biocide paired with Surf. E): no synergy

CCC12COCN1COC2 [CS-1246]
Synergy against any organism tested (any organism tested; biocide paired with Surf. D): no synergy

CCCCCCCCCCCCCC[P+](CCCC)(CCCC)CCCC.[Cl-] [TTPC]
ratio of surfactant to biocide where synergy was observed (any organism tested; biocide paired with Surf. E): 1:0.2 or greater
